Results on two compounds are retold here after paper PMC11184559, “Identification and Validation of Compounds Targeting Leishmania major Leucyl-Aminopeptidase M17” (ACS Infectious Diseases, 2024).

Each structure is given as a SMILES string. Several values for one entry are separate records, joined by “and”; a condition that tells them apart may be missing. Equal entries are not always repeated. Where two headings read alike, the source gives them in different places. Where only a bound is given, the exact number is not on record here.

In test [1] the target is rLmLAP (Leishmania major, UniProt Q7KF27). Nature of the test: RapidFire-MS aminopeptidase activity assay: inhibition of rLmLAP (LSTVIVR substrate). In kind it is biochemical. Particulars: for IC50: RapidFire-MS, 5 nM enzyme, 10 μM LSTVIVR, 20 min preincubation, 0.195-100 μM, mean ± standard error (n = 3). How it is done: Assays were carried out as previously described,[24] with some differences indicated below. The reaction mix consisted of 0 nM (control) and 30 nM rLmLAP in 1× PBS, pH 7.0, 0.005% (v/v) NP-40, plus 7.5 μL of LSTVIVR substrate peptide in the same buffer. For product quantification, the peak areas of the LSTVIVR peptide were integrated with respect to the internal standard LSTVIVR* peptide. The C-terminal arginine was chosen because this amino acid is amenable to isotopic labeling.[45]
rLmLAP was assayed at 5 nM with 10 μM (1× appKM) of LSTVIVR substrate peptide. The enzyme was preincubated with bestatin or DMSO for 20 min. Bestatin was prepared at 10 concentrations in DMSO, covering the range from 0.39 to 100 μM. […] The remaining experimental conditions were maintained, as described above.
A high-throughput screen was conducted against rLmLAP using 3,383 compounds with known protease inhibitor motifs. The compounds were dispensed onto plates using an ECHO 550 acoustic dispenser (Labcyte, Sunnyvale, CA). The enzyme was assayed at 5 nM with 10 μM (1× appKM) LSTVIVR substrate for 60 min. Before adding the substrate, the enzyme was preincubated with 45 nL of the compounds or DMSO for 20 min. Compounds, dissolved in DMSO, were tested at 30 μM. […] No replicates were performed for each inhibitor in this experiment. The remaining experimental conditions were kept constant as described above. The ActivityBase program from IDBS provider (https://www.idbs.com) was used to process and analyze the data. Selection criteria for potential inhibitors in this screen required an inhibition percentage greater than the mean (calculated from the inhibition percentages of all the inhibitors) plus three standard deviations (SD). All compounds were purchased commercially and are >95% pure by HPLC.
To obtain IC50 data for screen-detected rLmLAP inhibitors at a single concentration, ten-point concentration–response curves were generated for selected inhibitors showing greater than mean ±3 SD inhibition. The curves were prepared in 384-well plates with a maximum concentration of 100 μM and 1:2 serial dilutions in DMSO (0.195–100 μM) using an ECHO 550 acoustic dispenser. All other experimental conditions were as described above for RapidFire-MS optimization. Three replicates of each concentration of inhibitor were evaluated. The IC50 value was calculated by nonlinear fitting of a four-parameter logistic function to the experimental data. Curve fitting and IC50 calculations were performed using IDBS ActivityBase XE version 9.2.0.106. Inhibitory activity was determined using the peak area ratio, calculated as the reaction product (STVIVR) divided by its internal standard (*LSTVIVR). The peak area ratio of the reaction without enzyme was defined as 100% inhibitory activity, and that of the complete reaction mixture was defined as 0% inhibitory activity. At least three replicates were generated for each hit compound.

The target of test [2] is T1, rHsLAP (Homo sapiens, UniProt P28838).
T1 construct: purchased Assay Genie, Ireland
Nature of the test: RapidFire-MS selectivity study against human LAP. In kind it is biochemical. The following applies: for IC50: 150 nM rHsLAP, 600 μM LSTVIVR, 1 mM ZnCl2, 180 min. How it is done: The reaction mixture included 600 μM (1× appKM) LSTVIVR substrate peptide, 1 mM ZnCl2, and the reaction time was 180 min. The inhibitors were tested at concentrations ranging from 0.78 to 100 μM to determine inhibitory activity.

In test [3] the test system is parental (WT) L. major promastigotes. Briefly: Drug sensitivity assay (resazurin), parental L. major promastigotes. Type of test: cell-based. How it is done:
L. major promastigotes were cultured in HOMEM (Gibco) supplemented with 10% heat inactivated FBS at 28 °C.
L. major promastigotes were seeded in 96-well plates at 5 × 10^4/mL, exposed to 2-fold serial dilutions of test compounds, and incubated at 28 °C for 72 h. Resazurin was, then, added to each well to a final concentration of 50 μM, and fluorescence was measured after 2–3 h (excitation of 528 nm and emission of 590 nm). The EC50 was calculated by processing the collected data by GRAFIT (version 5.0.4, Erithacus Software) and fitting them to the following two-parameter equation: [drawing 6] 6 where [I] is the inhibitor concentration, and m is the slope. Experiments were performed on at least three independent biological replicates. Data are presented as the weighted mean ± standard deviation.
For orientation: Alamar Blue is a resazurin reagent that responds to reducing activity.

Test [4] has as its system LmjF.33.2570 (metallo-peptidase, Clan MF, Family M17). Briefly: Isothermal TPP (iTPP) thermal stabilization, LmjF.33.2570. In kind it is binding, Leishmania major. The following applies: L. major promastigote lysate, 47 °C, compound at 10× EC50 vs DMSO. Here is the method: Cell lysates were obtained as detailed above. Isothermal TPP assays were performed as previously described[29] but here lysates were incubated at two temperatures: 28 and 47 °C. The first temperature (28 °C) acts as a control temperature at which the protein levels are not altered by the presence of the test compound. The second temperature (47 °C) is the Leishmania spp. median Tm (melting temperature or temperature 50%) according to our interim data. […] These samples were aliquoted and submitted to a temperature shock at the designated temperature for 3 min, then 3 min at room temperature, and finally 3 min on ice. The soluble part was isolated by ultracentrifugation (100,000g, 20 min, 4 °C).
All aspects of sample processing, TMT-labeling, fractionation by HPLC into 10 fractions, LC-MS/MS, and protein identification and quantitation were described previously.[28],[68] Proteins with less than three peptides and those with increased stability at 28 °C were disregarded.
Proteins were identified by searching the MS and MS/MS data for the peptides against L. major strain Friedlin (TriTryp version 61, tritrypdb.org) using MaxQuant (http://maxquant.org/, version 2.1.4.0). All proteomics data sets have been deposited to the ProteomeXchange Consortium via the PRIDE[69] partner repository with the identifier PXD00000. Data were analyzed with Perseus v 1.6.15.[70] The reporter intensities of each protein were extracted and normalized to the control temperature reporter intensity (28 °C), then these normalized values were used to calculate the log2 transformed fold-changes (FC) of […] samples. Proteins stabilized (log2 FC > 1 in both replicates) were selected as putative hits.

Test [5] relates to LmLAP-overexpressing L. major promastigotes. In kind it is cell-based, Leishmania major. Particulars: compound at EC50, 72 h, n = 70 cells per condition. How it is done:
L. major promastigotes (WT and LmLAP OE) were grown in supplemented HOMEM media as described above, in T25 flasks. […] L. major WT cells were grown at control conditions. Briefly, cells were fixed directly in culture media with 3% (v/v) paraformaldehyde for 15 min at room temperature, washed three times with excess D-PBS, permeabilized with 0.2% Triton X-100 (v/v) in PBS for 5 min, and washed three times in excess PBS. Slides were mounted with mounting medium with DAPI (Vectashield Lab H-1000–10). Microscopy was carried out on a Zeiss microscope and images captured using software Zen Blue (Zeiss). Analysis of images and figure preparation were made in Omero.[71]

Where [6] appears, read: Leishmania major; value of the specific curve shown in Figure 4; read-out: EC50 (WT), representative curve.

Chain of rLmLAP (Q7KF27 entry or part of it): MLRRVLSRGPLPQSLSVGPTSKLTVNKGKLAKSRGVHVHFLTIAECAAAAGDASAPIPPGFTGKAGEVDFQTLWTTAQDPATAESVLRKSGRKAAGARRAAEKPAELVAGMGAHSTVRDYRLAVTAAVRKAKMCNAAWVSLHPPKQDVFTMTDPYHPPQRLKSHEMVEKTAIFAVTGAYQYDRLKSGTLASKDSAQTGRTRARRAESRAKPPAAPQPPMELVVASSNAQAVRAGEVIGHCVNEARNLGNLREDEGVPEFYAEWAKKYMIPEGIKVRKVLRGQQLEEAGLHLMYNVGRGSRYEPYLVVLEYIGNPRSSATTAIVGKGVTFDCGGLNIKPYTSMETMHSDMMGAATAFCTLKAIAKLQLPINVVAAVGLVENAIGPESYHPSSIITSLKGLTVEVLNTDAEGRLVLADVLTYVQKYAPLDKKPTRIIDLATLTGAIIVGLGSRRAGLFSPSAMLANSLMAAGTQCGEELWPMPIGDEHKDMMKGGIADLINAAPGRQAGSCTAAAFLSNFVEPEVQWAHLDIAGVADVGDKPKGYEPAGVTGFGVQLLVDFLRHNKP
T1 sequence (P28838 whole entry): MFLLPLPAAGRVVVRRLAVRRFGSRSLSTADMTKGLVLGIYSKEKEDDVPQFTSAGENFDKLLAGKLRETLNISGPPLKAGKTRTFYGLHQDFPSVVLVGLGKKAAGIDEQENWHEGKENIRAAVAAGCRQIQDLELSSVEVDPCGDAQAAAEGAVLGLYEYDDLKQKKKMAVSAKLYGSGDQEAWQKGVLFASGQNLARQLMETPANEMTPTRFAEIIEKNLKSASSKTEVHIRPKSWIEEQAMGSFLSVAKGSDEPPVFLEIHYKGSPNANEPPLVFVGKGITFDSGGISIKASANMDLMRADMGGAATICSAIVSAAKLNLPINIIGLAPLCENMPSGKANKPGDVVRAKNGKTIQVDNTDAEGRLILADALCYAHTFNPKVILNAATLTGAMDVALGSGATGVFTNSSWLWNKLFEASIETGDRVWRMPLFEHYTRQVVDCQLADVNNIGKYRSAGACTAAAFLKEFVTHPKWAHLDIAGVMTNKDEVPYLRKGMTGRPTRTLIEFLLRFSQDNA

With `COc1ccc(Cc2c(N)nc(-c3ccccn3)nc2N)cc1` [DDD00057570], in test [1], the inhibition at 100 µM stood at 99%; the 50% inhibitory concentration (IC50) was 3.3 µM and 3 µM. In test [2], testing at 100 µM gave an inhibition of 35% and the IC50 is above 100 µM. Further, in test [3] (Leishmania major, 72 h, resazurin; weighted mean ± SD (n = 5); read-out: EC50 (weighted mean), parental (WT) L. major promastigotes), the EC50 came out at 1.8 ± 0.2 µM. Also, the EC50 in test [3] (setting [6]) amounted to 1.1 ± 0.2 µM. Besides, in test [4], the “Enrichment (log2) replica A, LmjF.33.2570” value is 1.38 log2 and the “Enrichment (log2) replica B, LmjF.33.2570” value is 1.17 log2. Moreover, the “Frequency of elongated 1K1N1F forms in LmLAP-overexpressing cells” value in test [5] is around 36%.
On to `O=C(c1cccs1)N(CCCn1ccnc1)c1nc2ccccc2s1` [DDD00097924], for which, in test [1], the inhibition at 100 µM is 75%; the concentration for half-maximal inhibition (IC50) was 30.9 µM and 31 µM. Further, the “Experimental ΔΔG” value in test [1] (DDD00097924 relative to DDD00057570) is listed as 1.3 kcal/mol. Besides, in test [2], the inhibition at 100 µM worked out at 62% and half-maximal inhibition (IC50) was put at 98 µM. Also, the half-maximal effective concentration (EC50) in test [3] (Leishmania major; 72 h, resazurin; weighted mean ± SD (n = 5); read-out: EC50 (weighted mean), parental (WT) L. major promastigotes) was 3 ± 0.2 µM. Moreover, the EC50 in test [3] (setting [6]) came to 1.83 ± 0.2 µM. In test [4], the “Enrichment (log2) replica A, LmjF.33.2570” value was 1.97 log2 and the “Enrichment (log2) replica B, LmjF.33.2570” value is on record as 1.76 log2. Also, the “Frequency of elongated 1K1N1F forms in LmLAP-overexpressing cells” value in test [5] is reported as around 36%.

Usually inhibition stands for the percentage by which the read-out fell short of the control. High values mean strong suppression, low ones little suppression. As usually defined, the IC50 is the concentration that gives 50% inhibition. The low end stands for greater potency in that assay, the high end for weaker potency in that assay. By EC50 is commonly meant the midpoint of the concentration-response curve.
